These results are taken from US12152038B2, “Vasopressin receptor antagonists and products and methods related thereto” (Neumora Therapeutics, Inc., priority 2017, dated 2024).

In general, IC50 refers to the concentration that gives 50% inhibition.

Data set [1] addresses T1, human Arginine Vasopressin Receptor 1a (AVPR1a) (Homo sapiens, UniProt P37288).
T1 construct: expressed in transfected cells; host or cells: CHO (CHO-AVPR1a, kept under G418 selection)
Put plainly: Vasopressin V1a receptor antagonist assay (FLIPR calcium, CHO-AVPR1a cells). It is filed as cell-based. A digest of the protocol:
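CHO cells expressing human AVPR1a were loaded with Calcium-6 dye and preincubated with compound for 15 min at 37° C. Cells were then challenged with AVP at its daily-determined EC80, and FLIPR fluorescence was read. Compounds were tested in duplicate as 10-point 1:3 dilutions from a top final concentration of 3 μM.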

For data set [2], the target named is T2, human Oxytocin Receptor (hOTR) (Homo sapiens, UniProt P30559).
T2 construct: host or cells: CHEM-1 (ready-to-assay frozen cells)
T2 sequence (P30559 1-389): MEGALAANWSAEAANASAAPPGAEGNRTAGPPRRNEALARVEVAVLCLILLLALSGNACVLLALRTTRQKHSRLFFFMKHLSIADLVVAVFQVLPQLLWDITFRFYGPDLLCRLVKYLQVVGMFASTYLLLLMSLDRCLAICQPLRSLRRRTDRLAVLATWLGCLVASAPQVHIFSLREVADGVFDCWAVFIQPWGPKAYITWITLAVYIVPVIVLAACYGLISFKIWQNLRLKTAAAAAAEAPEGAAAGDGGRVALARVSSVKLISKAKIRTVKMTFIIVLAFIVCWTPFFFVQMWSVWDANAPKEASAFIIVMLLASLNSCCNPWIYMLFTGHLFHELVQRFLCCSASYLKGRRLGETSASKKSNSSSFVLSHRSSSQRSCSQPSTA
The experiment in a line: Oxytocin receptor (OTR) antagonist assay (FLIPR calcium, CHEM-1-hOTR cells). The class given is cell-based. As for the experimental part:
This assay was performed in CHEM-1 cells expressing the human Oxytocin Receptor (hOTR) to determine the inhibitory effect of the compounds of the invention on the human Oxytocin receptor. Oxytocin evokes an increase in intracellular calcium in CHEM-1-hOTR cells which is measured in a fluorescence assay on the FLIPR^TETRA using calcium sensitive dyes. Test compounds were assessed for their ability to affect the magnitude of the response to oxytocin, with antagonists showing a concentration-dependent reduction in the oxytocin-mediated fluorescence.
CHEM-1-hOTR ready was used to assay frozen cells (Eurofins #HTS09ORTA) which are supplied with a proprietary Media Component.
Day 1 of the assay: Cells were thawed in a 37° C. water bath and diluted with the supplied Media Component to a final volume of 10 ml. The cell suspension was centrifuged at 1000 rpm for 3 min at room temperature and the supernatant was discarded. The cell pellet was resuspended in Media Component (10.5 ml) and the cells (25 μL) were dispensed into a poly-D-lysine coated black, clear bottomed, 384-well plate. The plates were incubated overnight at 37° C., 5% CO2.
Day 2: At the start of each assay day the potency of oxytocin was assessed and an EC80 concentration was determined for subsequent compound profiling. Assays were performed using a two-step addition protocol on the FLIPR^TETRA; first addition of 5 μl of control or test compound at 10× final in assay buffer with 15 min incubation at 37° C., 5% CO2 followed by 10 μl of oxytocin at 6× final concentration in assay buffer. Changes in fluorescence were monitored for 3 min after both additions on the FLIPR^TETRA using 470-495 nm excitation and 515-575 nm emission wavelengths. The assay buffer consisted of HBSS (+Ca/+Mg) supplemented with 20 mM HEPES, and for the preparation of the oxytocin agonist only, 0.1% w/v bovine serum albumin. The assay was initiated by the removal of growth media from the cells and replaced with 45 μl of Calcium-6 dye (Molecular Devices) prepared at 1× in assay buffer. Cells were loaded with dye for 60-90 min at 37° C., 5% CO2 before initiation of the FLIPR^TETRA protocol. […] For compound profiling, test compounds were first serially diluted in DMSO (10-point curve, 1:3 dilutions) then diluted 33.3-fold in assay buffer prior to addition to the dye loaded cells on the FLIPR^TETRA. At the end of the incubation period 10 μl of oxytocin in assay buffer containing 0.1% BSA was added at the previously determined EC80 concentration.
In-plate controls for the assay included a L-368,899 concentration-response curve as the reference OTR antagonist and an oxytocin concentration-response curve to confirm the reproducibility of the EC80 used for the compound challenge.

Another data set deals with T3, MDR1 (P-glycoprotein) (Homo sapiens, UniProt P08183).
T3 construct: host or cells: MDCK (MDR1-MDCK; wild-type MDCK as comparator)
T3 sequence (P08183 whole entry): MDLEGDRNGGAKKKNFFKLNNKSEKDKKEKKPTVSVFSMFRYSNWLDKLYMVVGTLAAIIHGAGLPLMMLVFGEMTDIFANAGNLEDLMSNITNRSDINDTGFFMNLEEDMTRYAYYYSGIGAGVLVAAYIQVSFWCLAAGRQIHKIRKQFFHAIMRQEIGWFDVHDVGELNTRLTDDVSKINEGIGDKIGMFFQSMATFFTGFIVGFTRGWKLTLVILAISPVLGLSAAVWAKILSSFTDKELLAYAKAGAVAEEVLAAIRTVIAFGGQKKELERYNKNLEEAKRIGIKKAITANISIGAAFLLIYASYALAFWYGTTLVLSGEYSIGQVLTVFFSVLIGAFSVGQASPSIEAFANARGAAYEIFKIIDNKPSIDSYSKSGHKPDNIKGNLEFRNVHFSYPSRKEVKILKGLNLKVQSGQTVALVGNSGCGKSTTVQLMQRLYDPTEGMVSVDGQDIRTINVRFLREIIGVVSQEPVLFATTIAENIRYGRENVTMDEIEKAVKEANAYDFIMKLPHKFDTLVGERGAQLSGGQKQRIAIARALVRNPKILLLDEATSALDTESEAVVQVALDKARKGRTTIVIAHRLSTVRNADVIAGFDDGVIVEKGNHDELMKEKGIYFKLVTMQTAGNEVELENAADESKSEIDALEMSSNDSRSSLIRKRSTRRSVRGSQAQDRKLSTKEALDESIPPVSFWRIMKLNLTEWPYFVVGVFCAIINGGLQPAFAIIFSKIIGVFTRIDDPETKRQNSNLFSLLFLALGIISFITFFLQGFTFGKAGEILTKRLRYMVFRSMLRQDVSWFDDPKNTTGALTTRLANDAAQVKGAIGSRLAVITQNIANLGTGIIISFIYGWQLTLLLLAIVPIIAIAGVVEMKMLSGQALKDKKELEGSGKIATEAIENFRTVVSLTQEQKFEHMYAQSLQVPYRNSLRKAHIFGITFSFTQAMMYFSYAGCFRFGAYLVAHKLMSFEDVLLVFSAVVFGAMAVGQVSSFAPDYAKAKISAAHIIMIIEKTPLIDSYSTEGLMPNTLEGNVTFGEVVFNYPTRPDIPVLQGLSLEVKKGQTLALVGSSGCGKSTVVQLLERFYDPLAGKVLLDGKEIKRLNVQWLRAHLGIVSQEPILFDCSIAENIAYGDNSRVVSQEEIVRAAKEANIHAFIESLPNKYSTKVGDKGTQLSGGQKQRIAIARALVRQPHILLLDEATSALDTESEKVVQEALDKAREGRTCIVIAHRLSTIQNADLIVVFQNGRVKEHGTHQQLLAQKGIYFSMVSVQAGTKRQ
The experiment in a line: MDR1-MDCK permeability and efflux assay (Papp, efflux ratio, effective efflux ratio). The class given is in vitro ADME. The conditions noted are these: dog; for Papp A→B at 1 h, 10 μM: pH 7.4, read-out: Papp AB MDR1. As for the experimental part: (§1) The MDR1-MDCK effective efflux assay was performed as described in the BioFocus Standard Operating Procedure, ADME-SOP-56. Both wild-type (WT) and MDR1-MDCK cells (Solvo Biotechnology) were seeded onto 24-well Transwell plates at 2.35×10^5 cells per well and used in confluent monolayers after a 3 day culture at 37° C. under 5% CO2. For both cell types, test and control compounds (propranolol, vinblastine) were added (10 μM, 0.1% DMSO final, n=2) to donor compartments of the Transwell plate assembly in assay buffer (Hanks balanced salt solution supplemented with 25 mM HEPES, adjusted to pH 7.4) for both apical to basolateral (A>B) and basolateral to apical (B>A) measurements. Incubations were performed at 37° C., with samples removed from both donor and acceptor chambers at T=0 and 1 hour and compound analysed by mass spectrometry (LC-MS/MS) including an analytical internal standard.
(§2) Apparent permeability (Papp) values were determined from the relationship: Papp=[CompoundAcceptor T=end]×V Acceptor/([Compound Donor T=0]×V Donor)/incubation time×V Donor/Area×60×10^−6 cm/s
(§3) In this equation, V is the volume of each Transwell compartment (apical 125 μL, basolateral 600 μL), and concentrations are the relative MS responses for compound (normalized to internal standard) in the donor chamber before incubation and acceptor chamber at the end of the incubation, and Area is the area of cells exposed for drug transfer (0.33 cm^2).
(§4) Efflux ratios (Papp B>A/Papp A>B) were calculated for each compound from the mean Papp values in each direction for both wild-type and MDR1-MDCK cells.
(§5) In order to confirm the involvement of MDR1 in any efflux seen, an “effective efflux ratio” (EER) was calculated by comparing compound efflux ratios (ER) in the two cell types by the following equation: EER=ER(MDR1-MDCK)/ER(wild-type MDCK)
(§6) This ratio illustrates the effect of the over-expressed MDR1 normalised for the background movement of compound through the wild-type cells.
(§7) Lucifer Yellow (LY) was added to the apical buffer in all wells to assess viability of the cell layer. […] Recoveries<50% indicates compound solubility, stability or binding issues, thereby reducing the reliability of a result.
(§8) The inherent ability of a potential drug molecule to penetrate the blood brain barrier and avoid efflux by transporters expressed in the brain, can be roughly correlated with the Papp(A-B) and the efflux ratio (as defined above), respectively. A potential drug molecule with an apparent permeability<7 (10^−6 cm/sec) has low permeability (+), >7 (10^−6 cm/sec) but <10 (10^−6 cm/sec) has moderate permeability (++), >10 (10^−6 cm/sec) but <20 (10^−6 cm/sec) has good permeability (+++), and >20 (10^−6 cm/sec) is highly permeable (++++). High permeability in the WT and MDCK II cell permeability assay increases the probability of blood brain barrier penetration and access to the CNS. A potential drug molecule in the above assay system with an efflux ratio or effective efflux ratio of <1 has low probability of being an efflux substrate (++++), >1 but <2 has moderate probability of being an efflux substrate (+++), >2 but <3 has has an increased probability of being an efflux substrate (++), and >3 has a high probability of being an efflux substrate (+). If a potential drug molecule is an efflux substrate, the molecule will have a low probability of reaching exposures in the brain (site of action) that will result in efficacious levels of receptor occupancy.

Data set [3] is described as follows: Wild-type MDCK permeability and efflux assay (Papp, efflux ratio). The class given is in vitro ADME. The conditions noted are these: dog, pH 7.4, wild-type MDCK cells; for efflux ratio at 1 h, 10 μM: Papp B>A/Papp A>B, read-out: ER WT (Efflux Ratio). As for the experimental part: as §1, §2, §3, §4, §5, §6, §7, §8
The mark [4] stands for this setting: MDCK-MDR1, pH 7.4, ER(MDR1-MDCK)/ER(wild-type MDCK), read-out: EER (Effective Efflux Ratio).
[5] abbreviates: MDCK-MDR1, pH 7.4, Papp B>A/Papp A>B, MDR1-MDCK cells, read-out: ER MDR1 (Efflux Ratio).

Where two headings read alike, the source gives them in different places.

T1 sequence (P37288 whole entry): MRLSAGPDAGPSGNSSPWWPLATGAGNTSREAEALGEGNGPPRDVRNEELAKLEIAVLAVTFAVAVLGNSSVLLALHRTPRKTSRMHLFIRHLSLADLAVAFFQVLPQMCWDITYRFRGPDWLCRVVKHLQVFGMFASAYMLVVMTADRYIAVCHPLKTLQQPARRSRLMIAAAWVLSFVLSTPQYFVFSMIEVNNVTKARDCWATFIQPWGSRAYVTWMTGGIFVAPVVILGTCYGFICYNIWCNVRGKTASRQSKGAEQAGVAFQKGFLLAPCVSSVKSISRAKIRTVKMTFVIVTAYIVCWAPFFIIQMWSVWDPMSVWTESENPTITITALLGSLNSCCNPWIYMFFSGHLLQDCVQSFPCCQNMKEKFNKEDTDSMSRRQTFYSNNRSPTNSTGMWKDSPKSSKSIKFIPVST

For `CC1COc2cc(Cl)ccc2N1C(=O)N1CC2(C1)CN(c1ncccc1F)C2` (single isomer, unassigned) [1-57-B], the results for the IC50 in data set [1] and in data set [2] were ≥ 1000 nM and < 100 nM, respectively.

For `CC1COc2cc(F)ccc2N1C(=O)N1CC2(C1)CN(c1ccc(F)cn1)C2` (single isomer, unassigned) [12-1-A], the concentration for half-maximal inhibition (IC50) in data set [1] is ≥ 1000 nM. The efflux ratio at 1 h, 10 μM is 1 to 2 on MDR1 (P-glycoprotein) (setting [4]), < 1 at MDR1 (P-glycoprotein) (setting [5]) and < 1 in data set [3]. Besides, the Papp A→B at 1 h, 10 μM (at MDR1 (P-glycoprotein) (MDR1-MDCK cells); in data set [3]) was > 20 ×10⁻⁶ cm/s each time.

As to `O=C(N1CC2(C1)CN(c1cnccn1)C2)N1CCC(O)c2cc(Cl)ccc21` (single isomer, unassigned) [13-3-B], the IC50 in data set [1] was < 100 nM. Besides, the figures for the efflux ratio at 1 h, 10 μM (at MDR1 (P-glycoprotein) (setting [4]); at MDR1 (P-glycoprotein) (setting [5]); in data set [3]) were > 3, > 3 and 1 to 2, respectively. Besides, the Papp A→B at 1 h, 10 μM (at MDR1 (P-glycoprotein) (MDR1-MDCK cells); in data set [3]) was > 20 ×10⁻⁶ cm/s throughout.

In the case of `CC1COc2cc(Cl)ccc2N1C(=O)N1CC2(C1)CN(c1cc(C#N)ccn1)C2` (single isomer, unassigned) [20-6-A], the IC50 in data set [1] is ≥ 1000 nM. Besides, the efflux ratio at 1 h, 10 μM on MDR1 (P-glycoprotein) (setting [4]) is 1 to 2; on MDR1 (P-glycoprotein) (setting [5]), < 1; in data set [3], < 1. Moreover, the Papp A→B at 1 h, 10 μM (on MDR1 (P-glycoprotein) (MDR1-MDCK cells); in data set [3]) was > 20 ×10⁻⁶ cm/s throughout.

Turning to `Cc1nc(N2CC3(CN(C(=O)N4c5ccc(Cl)cc5OCC4C)C3)C2)ncc1F` (single isomer, unassigned) [20-7-A], the IC50 in data set [1] was ≥ 1000 nM. For the same compound, the efflux ratio at 1 h, 10 μM (at MDR1 (P-glycoprotein) (setting [4]); on MDR1 (P-glycoprotein) (setting [5]); in data set [3]) was < 1 throughout. The Papp A→B at 1 h, 10 μM (on MDR1 (P-glycoprotein) (MDR1-MDCK cells); in data set [3]) was > 20 ×10⁻⁶ cm/s throughout.

Turning to `Cc1cnc(N2CC3(CN(C(=O)N4c5ccc(Cl)cc5OCC4C)C3)C2)nc1` (single isomer, unassigned) [20-13-A], the half-inhibitory concentration (IC50) in data set [1] and in data set [2] was ≥ 1000 nM in each case.

`CC1COc2cc(F)ccc2N1C(=O)N1CC2(C1)CN(c1cc(C#N)ccn1)C2` (stereo not shown) [20-3]: the half-inhibitory concentration (IC50) in data set [1] was < 100 nM. The efflux ratio at 1 h, 10 μM on MDR1 (P-glycoprotein) (setting [4]) was < 1; at MDR1 (P-glycoprotein) (setting [5]), 1 to 2; in data set [3] it was 1 to 2. In addition, the Papp A→B at 1 h, 10 μM (at MDR1 (P-glycoprotein) (MDR1-MDCK cells); in data set [3]) was > 20 ×10⁻⁶ cm/s each time.
